Experimental data: patent publication US4405608A, “Novel peptide” (Novo Industri A/S, priority 1981, dated 1983)
No end group written: not given here.

Test: Toxicology: repeated subcutaneous administration to cats
Format: in vivo
Conditions: repeated s.c. administration of increasing doses up to 16 μg/kg body weight

Question: Which adverse effects does the source give for RSLQNTEEKSRSFPAPQTDPLDDPDQMTED [GRPP] here?
Answer: did not cause any adverse effects
